A short description of this data set: Solubility in 0.1 M phosphate buffer at pH 7. It counts as physicochemical. As to conditions: 0.1 M phosphate buffer at pH 7, 10 mg/mL final peptide concentration, shaking 2 hours at room temperature, peptides as TFA-salts; measured sample pH 6.5-7.0; read-out: Solubility. The protocol:
Peptides (as TFA-salts) were weighed out in a filter unit (Mini-UniPrep Syringeless Filter 0.45 μm, Whatman PVDF), and 0.1 M phosphate buffer at pH 7 was added to achieve 10 mg/mL final peptide concentration. The peptides were dissolved by shaking the filter units horizontally at 600 rpm for 2 hours at room temperature. Samples were then filtered to remove any insoluble particles. Controls were prepared by weighing out the corresponding peptide solid material and dissolving it in an appropriate vehicle (e.g. ACN:H2O) to a final concentration of 1 mg/mL. Both, the control and sample were analyzed by reversed phase chromatography. The area under the peak of the sample was compared to the control and the solubility was calculated based on that ratio. The pH was measured and recorded for each sample.

As to `CC[C@H](C)[C@H](NC(=O)[C@H](Cc1ccccc1)NC(=O)[C@H](C)NC(=O)C(C)(C)NC(=O)[C@H](CCC(N)=O)NC(=O)[C@H](C)NC(=O)[C@H](CCC(N)=O)NC(=O)[C@H](CCCCN)NC(=O)[C@H](CC(=O)O)NC(=O)[C@H](CC(C)C)NC(=O)C(C)(C)NC(=O)[C@@H](NC(=O)[C@H](CO)NC(=O)[C@H](Cc1ccc(O)cc1)NC(=O)[C@H](CC(=O)O)NC(=O)[C@H](CO)NC(=O)[C@@H](NC(=O)[C@H](Cc1ccccc1)NC(=O)[C@@H](NC(=O)CNC(=O)[C@H](CCC(=O)O)NC(=O)C(C)(C)NC(=O)[C@@H](N)Cc1ccc(O)cc1)[C@@H](C)O)[C@@H](C)O)[C@@H](C)CC)C(=O)N[C@@H](CCCNC(=N)N)C(=O)N[C@@H](Cc1c[nH]cn1)C(=O)N[C@@H](CC(C)C)C(=O)N[C@H](C(=O)N[C@@H](CC(N)=O)C(=O)N[C@@H](CCCCNC(=O)[C@@H](N)CCCCNC(=O)CC[C@H](NC(=O)CC[C@H](NC(=O)CC[C@H](NC(=O)CC[C@H](NC(=O)CC[C@H](NC(=O)CC[C@H](NC(=O)CCCCCCCCCCCCCCCCC(=O)O)C(=O)O)C(=O)O)C(=O)O)C(=O)O)C(=O)O)C(=O)O)C(=O)NC(C)(C)C(=O)N[C@H](C(=O)N[C@@H](CCCNC(=N)N)C(=O)N[C@@H](CCC(N)=O)C(=O)N[C@@H](CCCNC(=N)N)C(=O)N[C@@H](Cc1ccc(O)cc1)C(N)=O)[C@@H](C)O)[C@@H](C)CC` [Compound 102, Y-Aib-E-G-T-F-T-S-D-Y-S-I-Aib-L-D-K-Q-A-Q-Aib-A-F-I-R-H-L-I-N-K(1,3)-Aib-T-R-Q-R-Y-NH2.C18DA-gGlu-gGlu-gGlu-gGlu-gGlu-gGlu-eLys(1,2)], the solubility is 9100 µg/mL.

With `CC[C@H](C)[C@H](NC(=O)[C@H](CC(C)C)NC(=O)[C@H](Cc1c[nH]cn1)NC(=O)[C@H](CCCNC(=N)N)NC(=O)[C@@H](NC(=O)[C@H](Cc1ccccc1)NC(=O)[C@H](C)NC(=O)C(C)(C)NC(=O)[C@H](CCC(N)=O)NC(=O)[C@H](C)NC(=O)[C@H](CCC(N)=O)NC(=O)[C@H](CCC(=O)O)NC(=O)[C@H](CC(=O)O)NC(=O)[C@H](CC(C)C)NC(=O)C(C)(C)NC(=O)[C@@H](NC(=O)[C@H](CO)NC(=O)[C@H](Cc1ccc(O)cc1)NC(=O)[C@H](CC(=O)O)NC(=O)[C@H](CO)NC(=O)[C@@H](NC(=O)[C@H](Cc1ccccc1)NC(=O)[C@@H](NC(=O)CNC(=O)[C@H](CCC(=O)O)NC(=O)C(C)(C)NC(=O)[C@@H](N)Cc1ccc(O)cc1)[C@@H](C)O)[C@@H](C)O)[C@@H](C)CC)C(C)C)C(=O)N[C@@H](CC(N)=O)C(=O)N[C@@H](CCCCNC(=O)[C@@H](N)CCCCNC(=O)CC[C@H](NC(=O)CC[C@H](NC(=O)CC[C@H](NC(=O)CC[C@H](NC(=O)CC[C@H](NC(=O)CCCCCCCCCCCCCCCCC(=O)O)C(=O)O)C(=O)O)C(=O)O)C(=O)O)C(=O)O)C(=O)NC(C)(C)C(=O)N[C@H](C(=O)N[C@@H](CCCNC(=N)N)C(=O)N[C@@H](CCC(N)=O)C(=O)N[C@@H](CCCNC(=N)N)C(=O)N[C@@H](Cc1ccc(O)cc1)C(N)=O)[C@@H](C)O` [Compound 108, Y-Aib-E-G-T-F-T-S-D-Y-S-I-Aib-L-D-E-Q-A-Q-Aib-A-F-V-R-H-L-I-N-K(1,3)-Aib-T-R-Q-R-Y-NH2.C18DA-gGlu-gGlu-gGlu-gGlu-gGlu-eLys(1,2)], the solubility amounted to 9200 µg/mL.

The values above are taken from US20250382344A1, “Soluble GLP1/GIP/NPY2 Receptor Triple Agonists” (Boehringer Ingelheim International GmH, priority 2024, published 2025).
